According to the supplement of paper PMC10307832:

compound: CC1(COc2ccc3c(c2)ncn3-c2ccc3cccc(N4CCC(N)CC4)c3n2)COC1 [Crenolanib] + C[C@@H](Oc1cc(-c2cnn(C3CCNCC3)c2)cnc1N)c1c(Cl)ccc(F)c1Cl [Crizotinib] (partner 1 µM); test: relative viability (nuclei count vs DMSO), 5 days (fraction); higher = more cells survive; settings: first compound 0.1 µM
Method in brief: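 Relative viability equals treated-well nuclei counts divided by vehicle-well nuclei counts. Counts came from 4× images of lung cancer cell lines grown in 1536-well plates for 5 days after pin-tool dosing on the day after seeding. Dosing used one drug alone or a fixed anchor-drug dose plus five library-drug doses (not always all listed) in √10 steps, and values are medians of duplicate plates.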

How did the relative viability turn out when LU99A was run?
The relative viability was 0.615.

With ChaGo-K-1 as the cell line, how does the relative viability read?
The relative viability was 1.17.

Which relative viability does the source give for NCI-H2170 here?
Its relative viability is 1.19.

Which relative viability does the source give for NCI-H3122 here?
Its relative viability is 0.298.

Which relative viability does the source give for IA-LM here?
Its relative viability is 0.631.

For HCC-78, which relative viability is on record?
Its relative viability is 0.393.

How did the relative viability turn out when A549 was run?
Its relative viability is 0.769.

Which relative viability does the source give for NCI-H441 here?
The relative viability was 0.56.

Which relative viability does the source give for NCI-H1299 here?
Its relative viability is 0.924.

LCLC-103H was tested. Which relative viability did it give?
The relative viability was 1.06.

NCI-H1650 was tested. Which relative viability did it give?
Its relative viability is 0.916.

same assay, conditions: first compound 0.3162 µM

Which relative viability does the source give for NCI-H838 here?
The relative viability was 0.872.

Which relative viability does the source give for NCI-H1651 here?
The relative viability was 0.937.

With EBC-1 as the cell line, how does the relative viability read?
Its relative viability is 0.134.

Which relative viability does the source give for NCI-H1734 here?
Its relative viability is 0.778.

For NCI-H2009, which relative viability is on record?
The relative viability was 1.06.

How did the relative viability turn out when EPLC-272H was run?
Its relative viability is 0.918.

How did the relative viability turn out when PC-14 was run?
The relative viability was 0.966.

With LCLC-97TM1 as the cell line, how does the relative viability read?
Its relative viability is 0.324.

For NCI-H596, which relative viability is on record?
Its relative viability is 0.904.

With NCI-H2228 as the cell line, how does the relative viability read?
Its relative viability is 0.577.

How did the relative viability turn out when EMC-BAC-2 was run?
The relative viability was 0.791.

Which relative viability does the source give for NCI-H2087 here?
Its relative viability is 0.992.

Which relative viability does the source give for Calu-6 here?
Its relative viability is 0.854.

Which relative viability does the source give for HCC-44 here?
The relative viability was 0.881.

For NCI-H1703, which relative viability is on record?
Its relative viability is 0.219.

NCI-H647 was tested. Which relative viability did it give?
Its relative viability is 1.01.

Which relative viability does the source give for LK-2 here?
The relative viability was 0.227.

NCI-H2126 was tested. Which relative viability did it give?
Its relative viability is 1.09.

For SK-MES-1, which relative viability is on record?
The relative viability was 1.02.

How did the relative viability turn out when HARA was run?
Its relative viability is 0.924.

COR-L23 was tested. Which relative viability did it give?
Its relative viability is 0.718.

For COR-L 105, which relative viability is on record?
Its relative viability is 0.838.

For LC-2-ad, which relative viability is on record?
Its relative viability is 0.44.

Which relative viability does the source give for LU99A here?
Its relative viability is 0.558.

With ChaGo-K-1 as the cell line, how does the relative viability read?
The relative viability was 1.06.

NCI-H2170 was tested. Which relative viability did it give?
The relative viability was 1.18.

Which relative viability does the source give for NCI-H3122 here?
The relative viability was 0.267.

How did the relative viability turn out when IA-LM was run?
The relative viability was 1.29.

How did the relative viability turn out when HCC-78 was run?
Its relative viability is 0.34.

A549 was tested. Which relative viability did it give?
The relative viability was 0.99.

Which relative viability does the source give for NCI-H441 here?
Its relative viability is 0.772.

For NCI-H1299, which relative viability is on record?
The relative viability was 0.952.

For LCLC-103H, which relative viability is on record?
Its relative viability is 1.

With NCI-H1650 as the cell line, how does the relative viability read?
Its relative viability is 1.1.

same assay, conditions: first compound 1 µM

How did the relative viability turn out when NCI-H838 was run?
The relative viability was 0.772.

With NCI-H1651 as the cell line, how does the relative viability read?
Its relative viability is 0.826.

How did the relative viability turn out when EBC-1 was run?
The relative viability was 0.197.

Which relative viability does the source give for NCI-H1734 here?
Its relative viability is 0.693.

With NCI-H2009 as the cell line, how does the relative viability read?
Its relative viability is 0.815.

For EPLC-272H, which relative viability is on record?
Its relative viability is 1.01.

PC-14 was tested. Which relative viability did it give?
Its relative viability is 1.03.

LCLC-97TM1 was tested. Which relative viability did it give?
The relative viability was 0.457.

Which relative viability does the source give for NCI-H596 here?
The relative viability was 1.04.

With NCI-H2228 as the cell line, how does the relative viability read?
Its relative viability is 0.516.

For EMC-BAC-2, which relative viability is on record?
Its relative viability is 0.775.

For NCI-H2087, which relative viability is on record?
Its relative viability is 0.965.

For Calu-6, which relative viability is on record?
The relative viability was 0.835.

How did the relative viability turn out when HCC-44 was run?
Its relative viability is 0.848.

With NCI-H1703 as the cell line, how does the relative viability read?
Its relative viability is 0.125.

With NCI-H647 as the cell line, how does the relative viability read?
The relative viability was 1.03.

How did the relative viability turn out when LK-2 was run?
Its relative viability is 0.213.

With NCI-H2126 as the cell line, how does the relative viability read?
The relative viability was 1.02.

How did the relative viability turn out when SK-MES-1 was run?
Its relative viability is 0.973.

HARA was tested. Which relative viability did it give?
Its relative viability is 1.

How did the relative viability turn out when COR-L23 was run?
Its relative viability is 0.667.

For COR-L 105, which relative viability is on record?
Its relative viability is 0.73.

Which relative viability does the source give for LC-2-ad here?
Its relative viability is 0.486.

For LU99A, which relative viability is on record?
The relative viability was 0.568.

How did the relative viability turn out when ChaGo-K-1 was run?
The relative viability was 1.09.

Which relative viability does the source give for NCI-H2170 here?
Its relative viability is 1.17.

Which relative viability does the source give for NCI-H3122 here?
The relative viability was 0.321.

Which relative viability does the source give for IA-LM here?
The relative viability was 1.26.

With HCC-78 as the cell line, how does the relative viability read?
Its relative viability is 0.31.

With A549 as the cell line, how does the relative viability read?
Its relative viability is 0.717.

How did the relative viability turn out when NCI-H441 was run?
Its relative viability is 0.846.

Which relative viability does the source give for NCI-H1299 here?
The relative viability was 0.891.

How did the relative viability turn out when LCLC-103H was run?
The relative viability was 1.01.

For NCI-H1650, which relative viability is on record?
Its relative viability is 0.696.
